Source: the kinase profiling compilation of Christmann-Franck et al. (2016)

What was measured:
Test in all cases: radiometric filter-binding kinase assay, Kinase HotSpot
Conditions in all cases: compound 0.5 µM; ATP 10 µM
MST4 (human) = MST4 (human) (UniProt Q9P289)
PDPK1 (human) = PDPK1 (human) (UniProt O15530)
HIPK1 (human) = HIPK1 (human) (UniProt Q86Z02)
SRMS (human) = SRMS (human) (UniProt Q9H3Y6)
MAP3K10 (human) = MAP3K10 (human) (UniProt Q02779)
JAK3 JH1 JH2 (human) = JAK3 JH1 JH2 (human) (UniProt P52333)
IRAK1 (human) = IRAK1 (human) (UniProt P51617)
IRAK1 (human), sequence (P51617 whole entry, looked up): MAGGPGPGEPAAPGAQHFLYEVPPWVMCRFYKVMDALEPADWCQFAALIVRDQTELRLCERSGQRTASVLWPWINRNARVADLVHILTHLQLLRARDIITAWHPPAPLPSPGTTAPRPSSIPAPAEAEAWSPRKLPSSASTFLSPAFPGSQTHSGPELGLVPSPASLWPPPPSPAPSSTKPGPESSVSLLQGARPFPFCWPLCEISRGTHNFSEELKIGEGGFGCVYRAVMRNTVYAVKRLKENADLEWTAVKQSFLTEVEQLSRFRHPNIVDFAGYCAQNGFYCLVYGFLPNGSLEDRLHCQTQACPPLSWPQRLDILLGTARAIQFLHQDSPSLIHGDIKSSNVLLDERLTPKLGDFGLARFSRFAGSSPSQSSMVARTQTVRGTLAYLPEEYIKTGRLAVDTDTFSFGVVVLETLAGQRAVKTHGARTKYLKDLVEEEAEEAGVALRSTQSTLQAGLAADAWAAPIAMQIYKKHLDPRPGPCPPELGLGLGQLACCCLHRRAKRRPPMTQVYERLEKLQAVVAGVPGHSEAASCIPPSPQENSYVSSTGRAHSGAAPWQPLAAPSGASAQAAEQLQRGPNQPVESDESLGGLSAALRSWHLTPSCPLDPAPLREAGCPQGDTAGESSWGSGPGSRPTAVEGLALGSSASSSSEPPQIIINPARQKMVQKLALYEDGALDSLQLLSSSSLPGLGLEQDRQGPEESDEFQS

AURKB (human) = AURKB (human) (UniProt Q96GD4)
PRKCZ (human) = PRKCZ (human) (UniProt Q05513)
PIM2 (human) = PIM2 (human) (UniProt Q9P1W9)
PIM2 (human), sequence (Q9P1W9 whole entry, looked up): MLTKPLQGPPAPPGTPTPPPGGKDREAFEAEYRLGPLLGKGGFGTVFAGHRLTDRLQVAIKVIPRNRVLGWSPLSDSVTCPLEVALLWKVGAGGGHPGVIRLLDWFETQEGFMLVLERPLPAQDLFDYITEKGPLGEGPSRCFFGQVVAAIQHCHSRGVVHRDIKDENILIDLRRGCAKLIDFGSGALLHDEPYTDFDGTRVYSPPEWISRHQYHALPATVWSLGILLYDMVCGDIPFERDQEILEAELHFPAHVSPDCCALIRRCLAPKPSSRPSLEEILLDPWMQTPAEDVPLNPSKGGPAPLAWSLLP

RIPK2 (human) = RIPK2 (human) (UniProt O43353)
HIPK3 (human) = HIPK3 (human) (UniProt Q9H422)
CSNK1A1 (human) = CSNK1A1 (human) (UniProt P48729)
CSNK1A1 (human), sequence (P48729 whole entry, looked up): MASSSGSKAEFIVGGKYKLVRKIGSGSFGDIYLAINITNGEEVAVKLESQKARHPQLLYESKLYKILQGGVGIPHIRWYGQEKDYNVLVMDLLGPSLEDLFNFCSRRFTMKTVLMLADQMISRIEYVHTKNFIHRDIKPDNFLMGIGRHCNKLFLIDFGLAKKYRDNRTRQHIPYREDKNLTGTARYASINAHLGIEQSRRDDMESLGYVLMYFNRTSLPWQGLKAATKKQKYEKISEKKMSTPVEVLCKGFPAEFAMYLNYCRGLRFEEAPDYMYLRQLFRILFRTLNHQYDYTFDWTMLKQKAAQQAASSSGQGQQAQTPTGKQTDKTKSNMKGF

OXSR1 (human) = OXSR1 (human) (UniProt O95747)
PLK2 (human) = PLK2 (human) (UniProt Q9NYY3)
PLK2 (human), sequence (Q9NYY3 whole entry, looked up): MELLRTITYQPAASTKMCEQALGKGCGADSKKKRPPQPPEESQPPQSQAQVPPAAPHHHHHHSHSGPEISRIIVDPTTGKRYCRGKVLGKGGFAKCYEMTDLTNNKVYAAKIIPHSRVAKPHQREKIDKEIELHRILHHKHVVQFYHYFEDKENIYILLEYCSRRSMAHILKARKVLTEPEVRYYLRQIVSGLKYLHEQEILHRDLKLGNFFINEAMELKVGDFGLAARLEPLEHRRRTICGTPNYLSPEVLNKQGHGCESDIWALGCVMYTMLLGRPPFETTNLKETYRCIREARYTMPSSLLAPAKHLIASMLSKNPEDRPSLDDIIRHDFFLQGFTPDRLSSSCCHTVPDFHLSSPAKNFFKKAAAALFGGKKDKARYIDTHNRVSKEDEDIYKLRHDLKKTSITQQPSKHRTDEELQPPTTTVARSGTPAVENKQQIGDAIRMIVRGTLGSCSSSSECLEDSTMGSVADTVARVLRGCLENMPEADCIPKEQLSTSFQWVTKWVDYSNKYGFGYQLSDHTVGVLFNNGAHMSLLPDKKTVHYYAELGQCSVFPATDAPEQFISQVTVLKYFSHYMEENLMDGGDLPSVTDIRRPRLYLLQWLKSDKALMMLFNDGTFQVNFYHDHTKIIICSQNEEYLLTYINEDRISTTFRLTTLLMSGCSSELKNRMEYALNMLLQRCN

MARK1 (human) = MARK1 (human) (UniProt Q9P0L2)
PRKCB1 (human) = PRKCB1 (human) (UniProt P05771)
PRKCB1 (human), sequence (P05771 whole entry, looked up): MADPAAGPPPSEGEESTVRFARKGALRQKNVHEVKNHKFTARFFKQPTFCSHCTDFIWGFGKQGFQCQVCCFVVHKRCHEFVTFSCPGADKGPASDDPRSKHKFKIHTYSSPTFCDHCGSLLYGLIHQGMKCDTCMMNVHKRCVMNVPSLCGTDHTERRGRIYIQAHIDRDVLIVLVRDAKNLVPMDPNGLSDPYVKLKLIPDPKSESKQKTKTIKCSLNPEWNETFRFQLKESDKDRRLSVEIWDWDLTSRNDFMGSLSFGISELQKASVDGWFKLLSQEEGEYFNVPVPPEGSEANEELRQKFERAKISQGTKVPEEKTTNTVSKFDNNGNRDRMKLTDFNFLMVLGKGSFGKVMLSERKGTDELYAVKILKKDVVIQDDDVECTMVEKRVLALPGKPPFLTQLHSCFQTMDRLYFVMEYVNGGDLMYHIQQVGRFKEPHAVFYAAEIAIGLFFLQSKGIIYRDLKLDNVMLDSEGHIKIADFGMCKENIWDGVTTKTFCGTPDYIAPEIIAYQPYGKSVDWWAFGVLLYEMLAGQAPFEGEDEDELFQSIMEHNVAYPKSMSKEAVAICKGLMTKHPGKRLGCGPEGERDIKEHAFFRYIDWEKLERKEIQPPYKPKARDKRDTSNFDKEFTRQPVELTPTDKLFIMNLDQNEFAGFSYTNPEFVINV

EPHB1 (human) = EPHB1 (human) (UniProt P54762)
STK24 (human) = STK24 (human) (UniProt Q9Y6E0)
DYRK3 (human) = DYRK3 (human) (UniProt O43781)
NEK7 (human) = NEK7 (human) (UniProt Q8TDX7)
CDK9 CCNT1 (human) = CDK9 CCNT1 (human) (UniProt P50750+O60563)
AKT2 (human) = AKT2 (human) (UniProt P31751)
AKT2 (human), sequence (P31751 whole entry, looked up): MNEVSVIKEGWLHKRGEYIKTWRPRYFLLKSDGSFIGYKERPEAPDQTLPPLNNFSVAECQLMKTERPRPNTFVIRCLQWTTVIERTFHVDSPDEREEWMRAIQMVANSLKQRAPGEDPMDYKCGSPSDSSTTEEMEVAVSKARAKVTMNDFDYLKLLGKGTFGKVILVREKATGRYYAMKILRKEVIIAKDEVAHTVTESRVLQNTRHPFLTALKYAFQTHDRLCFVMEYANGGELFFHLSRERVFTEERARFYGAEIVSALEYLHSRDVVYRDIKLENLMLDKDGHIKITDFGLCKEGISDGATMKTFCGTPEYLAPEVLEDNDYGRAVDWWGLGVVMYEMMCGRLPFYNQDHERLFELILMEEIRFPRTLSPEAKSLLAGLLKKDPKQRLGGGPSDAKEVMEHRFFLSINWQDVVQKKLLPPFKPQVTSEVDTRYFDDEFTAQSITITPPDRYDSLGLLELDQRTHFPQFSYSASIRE

MAPK8 (human) = MAPK8 (human) (UniProt P45983)
MAPK8 (human), sequence (P45983 whole entry, looked up): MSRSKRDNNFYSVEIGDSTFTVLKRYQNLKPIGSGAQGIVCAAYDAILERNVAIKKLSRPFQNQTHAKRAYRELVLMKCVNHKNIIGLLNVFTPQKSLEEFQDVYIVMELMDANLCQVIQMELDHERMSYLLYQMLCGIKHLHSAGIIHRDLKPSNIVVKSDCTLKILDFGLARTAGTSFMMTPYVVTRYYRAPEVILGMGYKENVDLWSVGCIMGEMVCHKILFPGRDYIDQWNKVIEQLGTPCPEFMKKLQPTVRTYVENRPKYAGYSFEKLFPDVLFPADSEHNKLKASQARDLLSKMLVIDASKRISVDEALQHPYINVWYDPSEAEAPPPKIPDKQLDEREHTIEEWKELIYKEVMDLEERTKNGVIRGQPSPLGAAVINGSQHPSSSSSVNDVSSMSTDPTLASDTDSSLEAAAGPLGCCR

PAK4 (human) = PAK4 (human) (UniProt O96013)
CAMK4 (human) = CAMK4 (human) (UniProt Q16566)
AXL (human) = AXL (human) (UniProt P30530)
CDK1 CCNA2 (human) = CDK1 CCNA2 (human) (UniProt P06493+P20248)
CSNK1G3 (human) = CSNK1G3 (human) (UniProt Q9Y6M4)
PLK1 (human) = PLK1 (human) (UniProt P53350)
RET (human) = RET (human) (UniProt P07949)
PDGFRA (human) = PDGFRA (human) (UniProt P16234)
FER (human) = FER (human) (UniProt P16591)
STK11 (human) = STK11 (human) (UniProt Q15831)
PHKG2 (human) = PHKG2 (human) (UniProt P15735)
EPHA4 (human) = EPHA4 (human) (UniProt P54764)
EPHA4 (human), sequence (P54764 whole entry, looked up): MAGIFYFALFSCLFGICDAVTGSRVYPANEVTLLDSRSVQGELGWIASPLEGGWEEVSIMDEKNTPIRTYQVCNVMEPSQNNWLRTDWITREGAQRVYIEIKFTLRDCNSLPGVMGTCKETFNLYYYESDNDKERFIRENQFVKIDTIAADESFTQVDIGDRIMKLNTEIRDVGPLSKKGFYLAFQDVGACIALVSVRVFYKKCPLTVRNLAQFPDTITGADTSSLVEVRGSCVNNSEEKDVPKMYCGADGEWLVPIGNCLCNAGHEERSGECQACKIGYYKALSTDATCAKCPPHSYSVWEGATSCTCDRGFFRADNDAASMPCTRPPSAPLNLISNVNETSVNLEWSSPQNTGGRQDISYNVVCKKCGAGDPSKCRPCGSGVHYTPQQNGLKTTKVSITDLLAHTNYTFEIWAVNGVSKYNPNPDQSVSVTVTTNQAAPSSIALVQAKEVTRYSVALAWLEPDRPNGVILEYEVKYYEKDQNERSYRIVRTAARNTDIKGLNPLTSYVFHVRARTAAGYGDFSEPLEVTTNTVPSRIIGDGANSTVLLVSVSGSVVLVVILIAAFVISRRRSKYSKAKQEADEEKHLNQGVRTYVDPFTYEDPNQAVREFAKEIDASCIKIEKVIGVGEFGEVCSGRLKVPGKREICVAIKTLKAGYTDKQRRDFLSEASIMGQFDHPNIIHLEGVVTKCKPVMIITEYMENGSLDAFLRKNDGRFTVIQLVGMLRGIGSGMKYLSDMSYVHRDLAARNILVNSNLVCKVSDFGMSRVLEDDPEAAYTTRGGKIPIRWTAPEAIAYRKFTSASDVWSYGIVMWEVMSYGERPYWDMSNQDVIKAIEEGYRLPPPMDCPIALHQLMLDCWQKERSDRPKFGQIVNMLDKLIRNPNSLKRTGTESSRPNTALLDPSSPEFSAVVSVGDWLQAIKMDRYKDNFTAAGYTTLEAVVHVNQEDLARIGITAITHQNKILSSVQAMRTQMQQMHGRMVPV

ERBB2 (human) = ERBB2 (human) (UniProt P04626)
MAPK13 (human) = MAPK13 (human) (UniProt O15264)
MAPK13 (human), sequence (O15264 whole entry, looked up): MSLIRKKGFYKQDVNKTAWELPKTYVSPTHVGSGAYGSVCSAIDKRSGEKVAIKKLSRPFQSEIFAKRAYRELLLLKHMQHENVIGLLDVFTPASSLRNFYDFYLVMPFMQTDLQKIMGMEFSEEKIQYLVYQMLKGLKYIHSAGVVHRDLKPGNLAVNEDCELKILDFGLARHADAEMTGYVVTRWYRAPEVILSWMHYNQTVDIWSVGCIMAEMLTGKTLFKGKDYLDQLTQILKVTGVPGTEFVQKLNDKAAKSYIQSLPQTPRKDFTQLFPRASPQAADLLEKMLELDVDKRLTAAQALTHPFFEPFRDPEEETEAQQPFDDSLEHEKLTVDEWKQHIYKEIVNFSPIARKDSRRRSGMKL

MINK1 (human) = MINK1 (human) (UniProt Q8N4C8)
MAPKAPK5 (human) = MAPKAPK5 (human) (UniProt Q8IW41)
PAK1 (human) = PAK1 (human) (UniProt Q13153)
[1] = biological target: JAK1 JH1 catalytic (human) (UniProt P23458)

Cn1nc2c3c(cccc31)C(=O)c1ccccc1-2
residual activity (MST4 (human)): 108%
residual activity (PDPK1 (human)): 94.5%
residual activity (HIPK1 (human)): 112%
residual activity (SRMS (human)): 104%
residual activity (MAP3K10 (human)): 91.4%
residual activity (JAK3 JH1 JH2 (human)): 107%
residual activity (IRAK1 (human)): 99.6%
residual activity (AURKB (human)): 83.5%
residual activity (PRKCZ (human)): 97.9%
residual activity (PIM2 (human)): 105%
residual activity (RIPK2 (human)): 75.7%
residual activity (HIPK3 (human)): 113%
residual activity (CSNK1A1 (human)): 47.8%
residual activity (OXSR1 (human)): 102%
residual activity (PLK2 (human)): 93.5%
residual activity (MARK1 (human)): 95.7%
residual activity (PRKCB1 (human)): 94.7%
residual activity (EPHB1 (human)): 94.6%
residual activity (STK24 (human)): 98.6%
residual activity (DYRK3 (human)): 129%
residual activity (NEK7 (human)): 93.1%
residual activity (CDK9 CCNT1 (human)): 94.7%
residual activity (AKT2 (human)): 98.9%
residual activity (MAPK8 (human)): 87.2%
residual activity (PAK4 (human)): 90.4%
residual activity (CAMK4 (human)): 100%
residual activity (AXL (human)): 104%
residual activity (CDK1 CCNA2 (human)): 88%
residual activity (CSNK1G3 (human)): 81.4%
residual activity (PLK1 (human)): 97%
residual activity (RET (human)): 83.8%
residual activity (PDGFRA (human)): 97.6%
residual activity (FER (human)): 99.2%
residual activity (STK11 (human)): 87.7%
residual activity (PHKG2 (human)): 95.4%
residual activity (EPHA4 (human)): 104%
residual activity (ERBB2 (human)): 96.9%
residual activity (MAPK13 (human)): 106%
residual activity (MINK1 (human)): 92.3%
residual activity (MAPKAPK5 (human)): 94.5%
residual activity (PAK1 (human)): 98.5%
residual activity [1]: 110%

Cn1cnc2cc3c(Nc4cccc(Br)c4)ncnc3cc21
residual activity (MST4 (human)): 94.3%
residual activity (PDPK1 (human)): 98.8%
residual activity (HIPK1 (human)): 108%
residual activity (SRMS (human)): 84%
residual activity (MAP3K10 (human)): 94%
residual activity (JAK3 JH1 JH2 (human)): 106%
residual activity (IRAK1 (human)): 80.5%
residual activity (AURKB (human)): 78.2%
residual activity (PRKCZ (human)): 102%
residual activity (PIM2 (human)): 113%
residual activity (RIPK2 (human)): 35.6%
residual activity (HIPK3 (human)): 107%
residual activity (CSNK1A1 (human)): 102%
residual activity (OXSR1 (human)): 94.6%
residual activity (PLK2 (human)): 101%
residual activity (MARK1 (human)): 94.3%
residual activity (PRKCB1 (human)): 100%
residual activity (EPHB1 (human)): 72.2%
residual activity (STK24 (human)): 83.4%
residual activity (DYRK3 (human)): 102%
residual activity (NEK7 (human)): 99.4%
residual activity (CDK9 CCNT1 (human)): 88.5%
residual activity (AKT2 (human)): 106%
residual activity (MAPK8 (human)): 96.9%
residual activity (PAK4 (human)): 105%
residual activity (CAMK4 (human)): 98.6%
residual activity (AXL (human)): 101%
residual activity (CDK1 CCNA2 (human)): 95.8%
residual activity (CSNK1G3 (human)): 88.1%
residual activity (PLK1 (human)): 97.6%
residual activity (RET (human)): 54.4%
residual activity (PDGFRA (human)): 107%
residual activity (FER (human)): 90.6%
residual activity (STK11 (human)): 91.1%
residual activity (PHKG2 (human)): 103%
residual activity (EPHA4 (human)): 80.7%
residual activity (ERBB2 (human)): 47.4%
residual activity (MAPK13 (human)): 101%
residual activity (MINK1 (human)): 82.1%
residual activity (MAPKAPK5 (human)): 130%
residual activity (PAK1 (human)): 91.4%
residual activity [1]: 96.4%

CN(C)C[C@H]1CCn2c(c(C3=C(c4cn(C)c5ccccc45)C(=O)NC3=O)c3ccccc32)C1
residual activity (MST4 (human)): 78%
residual activity (PDPK1 (human)): 97%
residual activity (HIPK1 (human)): 101%
residual activity (SRMS (human)): 109%
residual activity (MAP3K10 (human)): 102%
residual activity (JAK3 JH1 JH2 (human)): 89.4%
residual activity (IRAK1 (human)): 127%
residual activity (AURKB (human)): 96.3%
residual activity (PRKCZ (human)): 31%
residual activity (PIM2 (human)): 102%
residual activity (RIPK2 (human)): 94.4%
residual activity (HIPK3 (human)): 111%
residual activity (CSNK1A1 (human)): 98.5%
residual activity (OXSR1 (human)): 98.4%
residual activity (PLK2 (human)): 99.9%
residual activity (MARK1 (human)): 92.8%
residual activity (PRKCB1 (human)): 3.71%
residual activity (EPHB1 (human)): 106%
residual activity (STK24 (human)): 66.5%
residual activity (DYRK3 (human)): 102%
residual activity (NEK7 (human)): 100%
residual activity (CDK9 CCNT1 (human)): 39.6%
residual activity (AKT2 (human)): 92.6%
residual activity (MAPK8 (human)): 100%
residual activity (PAK4 (human)): 104%
residual activity (CAMK4 (human)): 95.5%
residual activity (AXL (human)): 99.3%
residual activity (CDK1 CCNA2 (human)): 67.8%
residual activity (CSNK1G3 (human)): 104%
residual activity (PLK1 (human)): 102%
residual activity (RET (human)): 99.7%
residual activity (PDGFRA (human)): 93.1%
residual activity (FER (human)): 69.2%
residual activity (STK11 (human)): 91.9%
residual activity (PHKG2 (human)): 104%
residual activity (EPHA4 (human)): 103%
residual activity (ERBB2 (human)): 95.9%
residual activity (MAPK13 (human)): 117%
residual activity (MINK1 (human)): 97.8%
residual activity (MAPKAPK5 (human)): 95.4%
residual activity (PAK1 (human)): 99.8%
residual activity [1]: 108%
